Patent US9102648B1, “Bioavailable diacylhydrazine ligands for modulating the expression of exogenous genes via an ecdysone receptor complex” (Intrexon Corporation, priority 2003, dated 2015)
Read-outs that look alike come from different tables or passages of the source.

What was measured:
[1] = target: GAL4 DBD (1-147)-CfEcR(DEF)/VP16AD-βRXREF-LmUSPEF (Choristoneura fumiferana, UniProt O77240); test: cell-based; details: for Fold Induction, 27-63 Assay, 3.3 uM: 3.3 uM ligand; for Fold Induction, 27-63 Assay, 3.3 uM / Fold Induction, 27-63 Assay, 33 uM: RLU ligand treated / RLU DMSO treated cells; for Fold Induction, 27-63 Assay, 33 uM: 33 uM ligand; for 27-63 assay Rel Max FI: maximum fold induction at any concentration relative to that of GS-E ligand, CHO 27-63 cells
[2] = target: GAL4 DBD-CfEcR(DEF)/VP16AD-MmRXRE (Choristoneura fumiferana, UniProt O77240); test: 13B3 Assay (CHO stable cell line, luciferase reporter); details: for Fold Induction, 13B3 Assay, 3.3 uM: 3.3 uM ligand; for Fold Induction, 13B3 Assay, 3.3 uM / Fold Induction, 13B3 Assay, 33 uM: RLU ligand treated / RLU DMSO treated cells; for Fold Induction, 13B3 Assay, 33 uM: 33 uM ligand; for 13B3 assay Rel Max FI: maximum fold induction at any concentration relative to that of GS-E ligand, CHO 13B3 cells
In short: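 CHO 13B3 clone stably expressing GAL4 DBD–CfEcR(DEF) and VP16AD–MmRXR(DE) with GAL4 RE–luciferase reporter; cells plated 24 h at 37 °C, then treated with ligands (DMSO stocks diluted 300-fold), 8 concentrations 33–0.01 μM.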

[3] = read-out: 27-63 assay EC50, CHO 27-63 stable cell line, luciferase reporter, average of two wells
[4] = read-out: 13B3 EC50, CHO 13B3 stable cell line, luciferase reporter, 48 h, average of two wells

Compound | Fold Induction, 27-63 Assay, 3.3 uM ([1]; average of two wells) | Fold Induction, 27-63 Assay, 33 uM ([1]; average of two wells) | 27-63 assay Rel Max FI [1] | EC50 [1, 3] [nM] | Fold Induction, 13B3 Assay, 3.3 uM ([2]; average of two wells) | Fold Induction, 13B3 Assay, 33 uM ([2]; average of two wells) | 13B3 assay Rel Max FI [2] | EC50 [2, 4] [nM] | EC50 [1] [nM] | fold induction at 3.3 µM ([1]; read-out: Fold Induction, 27-63 Assay, 3.3 uM) | fold induction at 33 µM ([1]; read-out: Fold Induction, 27-63 Assay, 33 uM) | EC50 [2] [nM] | fold induction at 3.3 µM ([2]; read-out: Fold Induction, 13B3 Assay, 3.3 uM) | fold induction at 33 µM ([2]; read-out: Fold Induction, 13B3 Assay, 33 uM)
Cc1c(C(=O)NN(C(=O)c2cc(F)cc(F)c2)C(C)(C)C)ccc2c1CCCO2 [RG-115207] | 1332 | 1279 | 0.704 | 593 | 7260 | 7959 | 0.707 | 618 | – | – | – | – | – | –
CCc1c(OC)cccc1C(=O)NN(C(=O)c1cc(C)cc(COC(C)=O)c1)C(C)(C)C [RG-115223] | 273 | 1935 | 1.167 | 4680 | 8 | 3437 | 1.346 | > 50000 | – | – | – | – | – | –
Cc1c(C(=O)NN(C(=O)c2cc(F)c(F)cc2F)C(C)(C)C)ccc2c1CCCO2 [RG-115229] | 2829 | 1423 | 0.735 | 1150 | 599 | 709 | 0.418 | 2250 | – | – | – | – | – | –
CCc1c(C(=O)NN(C(=O)c2ccccc2OC)C(C)(C)C)ccc2c1OCCO2 [RG-115244] | 2203 | 1847 | 0.785 | 169 | 2404 | 573 | 0.663 | 369 | – | – | – | – | – | –
CCc1c(OC)cccc1C(=O)NN(C(=O)c1cc(Cl)ccc1OC)C(C)(C)C [RG-115253] | 848 | 910 | 0.742 | 107 | – | 471 | – | – | – | – | – | – | – | –
CCc1c(OC)cccc1C(=O)NN(C(=O)c1cc(Cl)ccc1[N+](=O)[O-])C(C)(C)C [RG-115257] | 1130 | 1320 | 0.663 | 698 | 820 | 354 | 0.742 | 886 | – | – | – | – | – | –
CCc1c(OC)cccc1C(=O)NN(C(=O)c1cc(C)cc(C)c1)C(C)(C)C=NO [RG-115258, 2-ethyl-3-methoxy-benzoic acid N′-(3,5-dimethyl-benzoyl)-N′-(2-hydroxyimino-1,1-dimethyl-ethyl)-hydrazide] | – | – | 1.279 | – | – | – | 1.334 | – | 1880 | 1970 | 2210 | 27100 | 144 | 3740
Cc1c(C(=O)NN(C(=O)c2cccc(F)c2)C(C)(C)C)ccc2c1CCCO2 [RG-115278] | 1250 | 906 | 0.720 | 885 | 1950 | 1050 | 0.823 | 630 | – | – | – | – | – | –
CCc1c(C(=O)NN(C(=O)c2cc(Cl)nc(Cl)c2)C(C)(C)C)ccc2c1OCCO2 [RG-115297] | 1544 | 946 | 0.986 | 330 | 1364 | 304 | 0.737 | 1360 | – | – | – | – | – | –
CCc1c(OC)cccc1C(=O)NN(C(=O)c1cc(F)c(Cl)cc1Cl)C(C)(C)C [RG-115302] | 940 | 815 | 0.521 | 1040 | 521 | 648 | 0.624 | 2000 | – | – | – | – | – | –
COc1cccc(C(=O)NN(C(=O)c2cc(C)cc(C)c2)C(C)(C)C)c1N [RG-115378] | 1493 | 1407 | 0.863 | 758 | 1778 | 2424 | 0.655 | 1760 | – | – | – | – | – | –
Cc1ccc([N+](=O)[O-])c(C(=O)N(NC(=O)c2ccc3c(c2C)OCCO3)C(C)(C)C)c1 [RG-115384] | 1713 | 1282 | 0.645 | 113 | 2753 | 2277 | 0.426 | 320 | – | – | – | – | – | –
